The assay addresses T1, Human HPK1, catalytic domain (Homo sapiens, UniProt Q92918).
T1 sequence (Q92918 1-346): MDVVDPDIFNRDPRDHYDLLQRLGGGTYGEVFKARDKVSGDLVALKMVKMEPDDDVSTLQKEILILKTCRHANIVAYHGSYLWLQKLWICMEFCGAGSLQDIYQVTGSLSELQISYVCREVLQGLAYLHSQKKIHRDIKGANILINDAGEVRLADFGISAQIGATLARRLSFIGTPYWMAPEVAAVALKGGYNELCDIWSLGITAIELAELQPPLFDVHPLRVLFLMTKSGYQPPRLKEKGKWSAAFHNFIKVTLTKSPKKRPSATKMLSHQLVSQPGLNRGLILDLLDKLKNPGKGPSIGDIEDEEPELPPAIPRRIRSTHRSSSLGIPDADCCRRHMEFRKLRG
Kind of assay: HPK1-SLP76 TR-FRET Assay. The settings on record: 75 pM HPK1, ATP 10 uM, SLP76 10 nM, 30 min pre-incubation, 60 min reaction. The assay is classed as biochemical. (In general: In TR-FRET formats the signal depends on donor and acceptor labels being close together.)

Usually IC50 stands for the concentration that gives 50% inhibition. A high value points to lower potency. In turn, `COc1cc2c(cc1Nc1ncc3ccc(-c4ccc(CN(C)C)cc4)cc3n1)CNCC2` [Compound 1-57, 7-{4-[(dimethylamino)methyl]phe-nyl}-N-(6-methoxy-1,2,3,4-tetrahydroisoquinolin-7-yl)quinazolin-2-amine] displayed an IC50 of 79.2 nM.

In turn, `COc1cc2c(cc1Nc1ncc3c(N)c(F)c(-c4cnc5c(c4C)NCCO5)c(Cl)c3n1)CN(C)CC2` [Compound 2-90, (+ and −)-8-chloro-6-fluoro-N~2~-(6-methoxy-2-methyl-1,2,3,4-tetrahydroisoquinolin-7-yl)-7-(8-methyl-2,3-dihydro-1H-pyrido[2,3-b][1,4]oxazin-7-yl)quinazoline-2,5-diamine] showed a half-maximal inhibitory concentration (IC50) of 0.0355 nM.

In turn, `COc1cc2c(cc1Nc1ncc3ccc(-c4cncc(N)c4C)cc3n1)CN(C)CC2` [Compound 1-3, 7-(5-amino-4-methylpyridin-3-yl)-N-(6-methoxy-2-methyl-1,2,3,4-tetrahydroisoquinolin-7-yl)quinazolin-2-amine] returned an IC50 of 1.52 nM.

`COc1cc2c(cc1Nc1ncc3ccc(NCC(=O)N4CCCC4)cc3n1)CN(C)CC2` [Compound 3-65, 2-({2-[(6-methoxy-2-methyl-1,2,3,4-tetrahydroisoquinolin-7-yl)amino]quinazolin-7-yl}-amino)-1-(pyrrolidin-1-yl)ethan-1-one] returned an IC50 of 136 nM.

In turn, `COc1cc2c(cc1Nc1ncc3ccc(NCC4CNC(=O)O4)cc3n1)CN(C)CC2` (racemic) [Compound 3-26, (S and R)-5-[({2-1(6-methoxy-2-methyl-1,2,3,4-tetrahydroiso-quinolin-7-yl)amino]quinazolin-7-yl}amino)methyl]-1,3-oxazol-idin-2-one] returned a half-inhibitory concentration (IC50) of 149 nM.

With `Cc1c(-c2c(F)c(N)c3cnc(Nc4ccc(CC(C)(C)O)cc4)nc3c2Cl)cnc2c1NCCO2` [Compound 2-164, 1-(4-{[5-amino-8-chloro-6-fluoro-7-(8-methyl-2,3-dihydro-1H-pyrido[2,3-b][1,4]oxazin-7-yl)quinazolin-2-yl]amino}phenyl)-2-methylpropan-2-ol], inhibition was half-maximal at 0.487 nM (IC50).

The compound `COC(=O)Cc1ccc(OC)c(Nc2ncc3c(N)c(F)c(-c4cnc5c(c4C)NCCO5)cc3n2)c1` [Compound 2-3, methyl (3-{[5-amino-6-fluoro-7-(8-methyl-2,3-dihydro-1H-pyrido[2,3-b][1,4]oxazin-7-yl)quinazolin-2-yl]amino}-4-methoxyphenyl)acetate] showed a concentration for half-maximal inhibition (IC50) of 323 nM.

The compound `Cc1c(-c2cc3nc(Nc4ccc5c(c4)C4CCC5N4C)ncc3c(N)c2F)cnc2c1NCCO2` (stereo not drawn) [Compound 2-121, 6-fluoro-7-(8-methyl-2,3-dihydro-1H-pyrido[2,3-b][1,4]oxazin-7-yl)-N~2~- (9-methyl-1,2,3,4-tetrahydro-1,4-epiminonaphthalen-6-yl)quinazoline-2,5-diamine] returned an IC50 of 0.0248 nM.

In the case of `COc1cc2c(cc1Nc1ncc3ccc(-c4ccc(S(=O)(=O)N5CCCC5)cc4)cc3n1)CNCC2` [Compound 1-81, N-(6-methoxy-1,2,3,4-tetrahydroisoquinolin-7-yl)-7-{4-[(pyrrolidin-1-yl)sulfonyl]phenyl}quinazo-lin-2-amine], the IC50 was found to be 192 nM.

Regarding `CCS(=O)(=O)Cc1ccc(Nc2ncc3c(N)c(F)c(-c4cnc5c(c4C)NCC(C)(C)O5)cc3n2)c(F)c1` [Compound 2-144, N~2~-{4-[(ethylsulfonyl)methyl]-2-fluorophenyl}-6-fluoro-7-(3,3,8-trimethyl-2,3-dihydro-1H-pyrido[2,3-b][1,4]oxazin-7-yl)quinazoline-2,5-diamine], 0.232 nM corresponded to half-maximal inhibition (IC50).

The compound `CNC(=O)C1(c2ccc(Nc3ncc4c(N)c(F)c(-c5cnc6c(c5C)NCCO6)cc4n3)cc2)CC1` [Compound 2-81, 1-(4-((5-amino-6-fluoro-7-(8-methyl-2,3-dihydro-1H-pyrido[2,3-b][1,4]oxazin-7-yl)quinazolin-2-yl)amino)phenyl)-N-methylcyclopropane-1-carboxamide] returned a 50% inhibitory concentration (IC50) of 0.0441 nM.

As to `COc1cc2c(cc1Nc1ncc3ccc(Nc4ccc(C)c(S(N)(=O)=O)c4)cc3n1)CN(C)CC2` [Compound 3-44, 5-({2-[(6-methoxy-2-methyl-1,2,3,4-tetrahydroisoquinolin-7-yl)amino]quinazolin-7-yl}-amino)-2-methylbenzene-1-sulfonamide], the IC50 was found to be 13 nM.

`CCS(=O)(=O)Cc1ccc(Nc2ncc3c(N)c(F)c(-c4cnc5c(c4C)NCC(C)O5)cc3n2)c(F)c1` (single isomer, unassigned) [Compound 2-129, (R or S)-7-(3,8-dimethyl-2,3-dihydro-1H-pyrido[2,3-b][1,4]oxazin-7-yl)-N2-(4-((ethylsulfonyl)methyl)-2-fluorophenyl)-6-fluoroquinazoline-2,5-diamine] registered a half-inhibitory concentration (IC50) of 0.454 nM.

In the case of `CNC(=O)CNc1ccc2cnc(Nc3cc4c(cc3OC)CCN(C)C4)nc2c1` [Compound 3-70, N~2~-{2-[(6-methoxy-2-methyl-1,2,3,4-tetrahydroisoquinolin-7-yl)amino]quinazolin-7-yl}-N-methylglycinamide], the IC50 turned out to be 392 nM.

Take `COc1cc2c(cc1Nc1ncc3c(N)cc(N4C(=O)OC[C@@H]4C)cc3n1)CN(C)CC2` [Compound 3-17, (S)-3-{5-amino-2-[(6-methoxy-2-methyl-1,2,3,4-tetrahydroiso-quinolin-7-yl)amino]quinazolin-7-yl}-4-methyl-1,3-oxazolidin-2-one]: inhibition was half-maximal at 0.0757 nM (IC50).

For the compound `COc1cc2c(cc1Nc1ncc3ccc(-c4cccc(C(C)(C)NC(C)=O)c4)cc3n1)CN(C)CC2` [Compound 1-100, N-[2-(3-{2-[(6-methoxy-2-methyl-1,2,3,4-tetrahydroisoquinolin-7-yl)amino]quinazolin-7-yl}phenyl)propan-2-yl]acetamide], the IC50 worked out at 281 nM.

For `CC(=O)NC1CCc2cc(Nc3ncc4c(N)c(F)c(-c5cnc6c(c5C)NCCO6)cc4n3)ccc21` (single isomer, unassigned) [Compound 2-10, (S or R)—N-(5-((5-amino-6-fluoro-7-(8-methyl-2,3-dihydro-1H-pyrido[2,3-b][1,4]oxazin-7-yl)quinazolin-2-yl)amino)-2,3-dihydro-1H-inden-1-yl)acetamide], half-maximal inhibition (IC50) was put at 0.125 nM.

`Cc1c(-c2cc3nc(Nc4ccc(C5CCN(C)C5=O)cc4)ncc3c(N)c2F)cnc2c1NCCO2` (single isomer, unassigned) [Compound 2-147, (R or S)-3-(4-{[5-amino-6-fluoro-7-(8-methyl-2,3-dihydro-1H-pyrido[2,3-b][1,4]oxazin-7-yl)quinazolin-2-yl]amino}phenyl)-1-methylpyrrolidin-2-one]: the IC50 amounted to 0.0753 nM.

Compound `CC(=O)NCc1ccc(Nc2ncc3c(N)c(F)c(-c4cnc5c(c4C)NCCO5)cc3n2)cc1` [Compound 2-30, N-[(4-{[5-amino-6-fluoro-7-(8-methyl-2,3-dihydro-1H-pyrido[2,3-b][1,4]oxazin-7-yl)quinazolin-2-yl]amino}phenyl)methyl] acetamide] had a half-inhibitory concentration (IC50) of 0.0811 nM.

The compound `COc1cc2c(cc1Nc1ncc3ccc(Oc4ccc(N5CCN(C(C)=O)CC5)cc4)cc3n1)CN(C)CC2` [Compound 4-7, 1-{4-[4-({2-[(6-methoxy-2-methyl-1,2,3,4-tetrahydro-isoquinolin-7-yl)amino]-quinazolin-7-yl}oxy)phen-yl]piperazin-1-yl}ethan-1-one] came in with an IC50 of 224 nM.

`COc1cc2c(cc1Nc1ncc3ccc(-c4cnc5[nH]c(=O)[nH]c5c4)cc3n1)CN(C)CC2` [Compound 1-106, 6-{2-[(6-methoxy-2-methyl-1,2,3,4-tetrahydroisoquinolin-7-yl)amino]quinazolin-7-yl}-1,3-dihydro-2H-imidazo[4,5-b]pyridin-2-one] displayed an IC50 of 44.1 nM.

As to `COc1cc2c(cc1Nc1ncc3ccc(Nc4cc(S(C)(=O)=O)ccc4C)cc3n1)CN(C)CC2` [Compound 3-24, N~2~-(6-methoxy-2-methyl-1,2,3,4-tetrahydroisoquinolin-7-yl)-N~7~-[2-methyl-5-(meth-ylsulfonyl)phenyl]quinazoline-2,7-diamine], the 50% inhibitory concentration (IC50) was determined as 2.6 nM.

The compound `CNC(=O)c1ccc(Nc2ncc3c(N)c(F)c(-c4cnc5c(c4C)NCCO5)cc3n2)c(OC)c1` [Compound 2-74, 4-{[5-amino-6-fluoro-7-(8-methyl-2,3-dihydro-1H-pyrido[2,3-b][1,4]oxazin-7-yl)quinazolin-2-yl]amino}-3-methoxy-N-methylbenzamide] yielded a concentration for half-maximal inhibition (IC50) of 0.266 nM.

As for `COc1cc2c(cc1Nc1ncc3c(N)c(F)c(-c4cnc5c(c4C)NCCO5)c(Cl)c3n1)CN(C(C)C)CC2` [Compound 2-106, (+ or −)-8-chloro-6-fluoro-N2-(2-isopropyl-6-methoxy-1,2,3,4-tetrahydroisoquinolin-7-yl)-7-(8-methyl-2,3-dihydro-1H-pyrido[2,3-b][1,4]oxazin-7-yl)quinazoline-2,5-diamine], the 50% inhibitory concentration (IC50) came out at 5.76 nM.

`Cc1c(-c2cc3nc(Nc4ccc(CS(C)(=O)=O)cc4F)ncc3c(N)c2F)cnc2c1NCCO2` [Compound 2-155, 6-fluoro-N~2~-{2-fluoro-4-[(methylsulfonyl)methyl]phenyl}-7-(8-methyl-2,3-dihydro-1H-pyrido[2,3-b][1,4]oxazin-7-yl)quinazoline-2,5-diamine] displayed an IC50 of 0.0647 nM.

Compound `COc1cc2c(cc1Nc1ncc3ccc(N(C)CC4CNC(=O)O4)cc3n1)CN(C)CC2` (racemic) [Compound 3-30, (S and R)-5-1112-1(6-methoxy-2-methyl-1,2,3,4-tetrahydroiso-quinolin-7-yl)amino]quinazolin-7-yl}(methyl)amino]methyl}-1,3-oxazolidin-2-one] showed a half-inhibitory concentration (IC50) of 148 nM.

Compound `COc1cc2c(cc1Nc1ncc3ccc(-c4ccc(C#N)cc4C)cc3n1)CNCC2` [Compound 1-33, 4-{2-[(6-methoxy-1,2,3,4-tetrahydroisoquinolin-7-yl)amino]quinazolin-7-yl}-3-methylbenzonitrile] came in with an IC50 of 136 nM.

Source of the values: US20230399341A1, “7-PHENYL SUBSTITUTED 2-AMINOQUINAZOLINE INHIBITORS OF HPK1” (MERCK SHARP & DOHME LLC, priority 2020, published 2023).
